These are literature values, as cited in patent publication US20070134273A1, “Composition and method for the treatment of carcinoma” (priority 2004, published 2007).

Read-outs that look alike come from different tables or passages of the source.

Data set [1] relates to peripheral blood mononuclear cells, monocytes, and dendritic cells. As to conditions: in vitro and in vivo, versus imiquimod (Aldara R-837).
[2] abbreviates: transurethral resection plus intravesical agent versus transurethral resection alone.

Regarding `CO[C@@]12[C@H](COC(N)=O)C3=C(C(=O)C(C)=C(N)C3=O)N1C[C@@H]1N[C@@H]12` [mitomycin], in the data set with bladder cancer (setting [2]), the “studies with a significant reduction in tumor progression” value is recorded as 0 of 2 and the “studies with a significant reduction in tumor recurrences” value was 2 of 5.

For the compound `CCOCc1nc2c(N)nc3ccccc3c2n1CC(C)(C)O` [Resiquimod, 4-amino-2-ethoxymethyl-α, α-dimethyl-1H-imidazo[4,5-c]quinoline-1-ethanol], the “potency in inducing cytokines relative to imiquimod” value in data set [1] is “about 100 times”. Regarding `S=P(N1CC1)(N1CC1)N1CC1` [thiotepa], in the data set on bladder cancer (in vivo), the “studies with a significant reduction in tumor progression” value was 0 of 3 and the “studies with a significant reduction in tumor recurrences” value is 6 of 10.

On to `COc1cccc2c1C(=O)c1c(O)c3c(c(O)c1C2=O)C[C@@](O)(C(=O)CO)C[C@@H]3O[C@H]1C[C@H](N)[C@H](O)[C@H](C)O1` [doxorubicin], for which, in the data set with bladder cancer (setting [2]), the “studies with a significant reduction in tumor progression” value was 0 of 2 and the “studies with a significant reduction in tumor recurrences” value was 2 of 4.
